{"source": "patent US12390476B2", "about": "“Multiphasic contraceptive regimen for oral combination drug formulation of progestin and estrogen” (priority 2011, dated 2025)", "origin": "cited, not measured here", "conditions": "compared to gestodene, desogestrel and drospirenone", "data": [{"smiles": "C#C[C@]1(O)CC[C@H]2[C@@H]3CCC4=CC(=O)CC[C@@H]4[C@H]3CC[C@@]21CC", "note": "[LNG, levonorgestrel]", "values": [{"measurement": "incidence of venous thromboembolism (VTE)", "result": "lowest incidence"}]}]}
